Source: patent publication US6395684B1, “Selective herbicides based on a substituted phenyl sulfonyl amino carbonyl triazolinone” (Bayer Aktiengesellschaft, priority 1998, dated 2002)
Counter-ions that a name gives are not always drawn.

Key:
Format in all cases: in vivo
Thlaspi arvense = assay: Post-emergence tests/outdoors (Example D, USA); conditions: 42 g a.i./ha to 45 g a.i./ha, post-emergence (autumn), outdoors, winter wheat, with surface-active substances (SAS), 7 tests
Method: (§1) The active compound was applied by the post-emergence method (spring) across the area by the spray method, with an average droplet size. To produce a useful preparation of active compound, the active compound was formulated as 70 WP or 70 WG (70% w/w water-dispersible powder or granules) and applied with customary amounts of water. To assess the crop compatibility, from 1 to 8 weeks after the treatment, plant growth inhibitions or […] of the leaf area were assessed in % damage in comparison to the development of the untreated control. At different intervals after the treatment, the herbicidal activity was assessed as % reduction in comparison to the untreated control, based on the weed development. The figures denote: 0%=no damage of the crops or no herbicidal effect, 100%=total destruction of the crops or the weeds. Post-emergence Tests/outdoors The sodium salt of the compound of the formula (I) was tested under outdoor conditions in the main cultivation areas of winter wheat in the USA (Pacific Northwest, North Central Area, Central Plains) against economically important weeds. The design, the practice and the evaluation of the experiments corresponded to Example C. The active compound was applied in autumn. Wetting of the plants was improved by addition of commercial surface-active substances (SAS) in the concentrations recommended by the respective manufacturer.

Bromus tectorum = assay: Post-emergence tests/outdoors (Example D, USA); conditions: 42 g a.i./ha to 45 g a.i./ha, post-emergence (autumn), outdoors, winter wheat, with surface-active substances (SAS), 37 tests
Method: as §1

Bromus secalinus = assay: Post-emergence tests/outdoors (Example D, USA); conditions: 42 g a.i./ha to 45 g a.i./ha, post-emergence (autumn), outdoors, winter wheat, with surface-active substances (SAS), 24 tests
Method: as §1

Erysimum cheiranthoides = assay: Post-emergence tests/outdoors (Example D, USA); conditions: 42 g a.i./ha to 45 g a.i./ha, post-emergence (autumn), outdoors, winter wheat, with surface-active substances (SAS), 10 tests
Method: as §1

Bromus [1] = assay: Pre-emergence test/greenhouse; conditions: greenhouse, after three weeks
Method: (§2) Pre-emergence Test/greenhouse Solvent: 5 parts by weight of acetone Emulsifier: 1 part by weight of alkylaryl polyglycol ether To produce a suitable preparation of active compound, 1 part by weight of active compound is mixed with the stated amount of solvent, the stated amount of emulsifier is added and the concentrate is diluted with water to the desired concentration. Seeds of the test plants are sown in normal soil. After about 24 hours, the soil is sprayed with the preparation of active compound such that the particular amount of active compound desired is applied per unit area. The concentration of the spray liquor is chosen so that the particular amount of active compound desired is applied in 500 litres of water per hectare. After three weeks, the degree of damage to the plants is tested in % damage in comparison to the development of the untreated control. The figures denote: 0% no effect (like untreated control) 100%=total destruction

Poa = assay: Pre-emergence test/greenhouse; conditions: 15 g ai./ha, greenhouse, after three weeks
Method: as §2

Sinapis = assay: Pre-emergence test/greenhouse; conditions: 15 g ai./ha, greenhouse, after three weeks
Method: as §2

Setaria = assay: Pre-emergence test/greenhouse; conditions: 30 g ai./ha, greenhouse, after three weeks
Method: as §2

Amaranthus = assay: Pre-emergence test/greenhouse; conditions: 15 g ai./ha, greenhouse, after three weeks
Method: as §2

Alopecurus [2] = assay: Pre-emergence test/greenhouse; conditions: greenhouse, after three weeks
Method: as §2

Lolium [3] = assay: Pre-emergence test/greenhouse; conditions: 30 g ai./ha, greenhouse, after three weeks
Method: as §2

Wheat [4] = assay: Pre-emergence test/greenhouse; conditions: greenhouse; for degree of damage to the plants (% damage in comparison to the untreated control): Wheat, after three weeks
Method: as §2

Avena [5] = assay: Pre-emergence test/greenhouse; conditions: greenhouse, after three weeks
Method: as §2

Agropyron [6] = assay: Pre-emergence test/greenhouse; conditions: 15 g ai./ha, greenhouse, after three weeks
Method: as §2

Phalaris minor = assay: Post-emergence test/outdoors (Example E, California); conditions: 42 g a.i./ha to 45 g a.i./ha, + SAS, outdoors, irrigation wheat growing area, 2 tests
winter wheat = assay: Post-emergence tests/outdoors (Example D, USA), crop compatibility; conditions: 42 g a.i./ha to 45 g a.i./ha, post-emergence (autumn), outdoors, with surface-active substances (SAS), 78 tests
Method: as §1

Bromus [7] = assay: Post-emergence test/greenhouse; conditions: 60 g ai./ha, greenhouse, after three weeks
Method: (§3) Post-emergence Test/greenhouse Solvent: 5 parts by weight of acetone Emulsifier: 1 part by weight of alkylaryl polyglycol ether To produce a suitable preparation of active compound, 1 part by weight of active compound is mixed with the stated amount of solvent, the stated amount of emulsifier is added and the concentrate is diluted with water to the desired concentration. Test plants which have a height of 5-15 cm are sprayed with the preparation of active compound such that the particular amounts of active compound desired are applied per unit area. The concentration of the spray liquor is chosen so that the particular amounts of active compound desired are applied in 500 l of water/ha. After three weeks, the degree of damage to the plants is assessed in % damage in comparison to the development of the untreated control. The figures denote: 0%=no effect (like untreated control) 100% total destruction

Alopecurus [8] = assay: Post-emergence test/greenhouse; conditions: 60 g ai./ha, greenhouse, after three weeks
Method: as §3

Lolium [9] = assay: Post-emergence test/greenhouse; conditions: 60 g ai./ha, greenhouse, after three weeks
Method: as §3

Wheat [10] = assay: Post-emergence test/greenhouse; conditions: greenhouse
Method: as §3

Avena [11] = assay: Post-emergence test/greenhouse; conditions: 60 g ai./ha, greenhouse, after three weeks
Method: as §3

Agropyron [12] = assay: Post-emergence test/greenhouse; conditions: 60 g ai./ha, greenhouse, after three weeks
Method: as §3

CCCOc1nn(C(=O)NS(=O)(=O)c2ccccc2C(=O)OC)c(=O)n1C [(I)-Na-salt, 2-(2-methoxycarbonyl-phenylsulphonylaminocarbonyl)-4-methyl-5-propoxy-2,4-dihydro-3H-1,2,4-triazol-3-one]
herbicidal effect (%) (Thlaspi arvense): 100% | herbicidal effect (%) (Bromus tectorum): 90% | herbicidal effect (%) (Bromus secalinus): 95% | herbicidal effect (%) (Erysimum cheiranthoides): 89% | degree of damage to the plants (% damage in comparison to the untreated control) (Bromus [1]; 15 g ai./ha): 90% | degree of damage to the plants (% damage in comparison to the untreated control) (Bromus [1]; 30 g ai./ha): 90% | degree of damage to the plants (% damage in comparison to the untreated control) (Poa): 90% | degree of damage to the plants (% damage in comparison to the untreated control) (Sinapis): 90% | degree of damage to the plants (% damage in comparison to the untreated control) (Setaria): 90% | degree of damage to the plants (% damage in comparison to the untreated control) (Amaranthus): 95% | degree of damage to the plants (% damage in comparison to the untreated control) (Alopecurus [2]; 15 g ai./ha): 95% | degree of damage to the plants (% damage in comparison to the untreated control) (Alopecurus [2]; 30 g ai./ha): 95% | degree of damage to the plants (% damage in comparison to the untreated control) (Lolium [3]): 80% | degree of damage to the plants (% damage in comparison to the untreated control) (Wheat [4]; 15 g ai./ha): 0% | degree of damage to the plants (% damage in comparison to the untreated control) (Wheat [4]; 30 g ai./ha): 0% | compatibility with crop plants (wheat), in words (Wheat [4]; sodium salt of (I) at 15 g/ha to 60 g/ha): very good compatibility | degree of damage to the plants (% damage in comparison to the untreated control) (Avena [5]; 15 g ai./ha): 80% | degree of damage to the plants (% damage in comparison to the untreated control) (Avena [5]; 30 g ai./ha): 90% | degree of damage to the plants (% damage in comparison to the untreated control) (Agropyron [6]): 90% | herbicidal effect (%) (Phalaris minor): 93% | Damage to the crop (wheat) (winter wheat): 2% | degree of damage to the plants (% damage in comparison to the untreated control) (Bromus [7]): 95% | degree of damage to the plants (% damage in comparison to the untreated control) (Alopecurus [8]): 90% | degree of damage to the plants (% damage in comparison to the untreated control) (Lolium [9]): 80% | degree of damage to the plants (% damage in comparison to the untreated control) (Wheat [10]; Wheat, 60 g ai./ha, after three weeks): 0% | compatibility with crop plants (wheat), in words (Wheat [10]; sodium salt of (I) at 60 g/ha): very good compatibility | degree of damage to the plants (% damage in comparison to the untreated control) (Avena [11]): 80% | degree of damage to the plants (% damage in comparison to the untreated control) (Agropyron [12]): 100%
